Results published in patent publication US7030096B1, “Method of enhancing relaxation of penile smooth muscle by introduction of DNA encoding maxi-K potassium channel protein” (Albert Einstein College of Medicine of Yeshiva University, priority 1997, dated 2006).
Like-named read-outs stand apart in the source and are kept apart here. Each block holds one compound with its values, some of them ahead of it. Where no end group is shown, it is not given here.

How the values were obtained:
corporal smooth muscle = conditions: cited from earlier work
KATP channel = conditions: Table 4; cited from earlier work
[1] = test system: isolated human corporal tissue strips; conditions: cited from earlier work
[2] = test system: isolated human corporal tissue strips; assay type: cell-based
L-type Ca^2+ channel = conditions: cited from earlier work
maxi-K channel [3] = target: T1, maxi-K channel (Homo sapiens, UniProt Q12791); assay type: cell-based
KCa channel = KCa channel (Homo sapiens, UniProt Q12791); conditions: Table 4; cited from earlier work
[4] = test system: cultured human corporal smooth muscle cells; experiment: Resting and ET-1-induced intracellular calcium in fura-2-loaded cultured cells; assay type: cell-based; conditions: transfection with hSlo cDNA or preincubation with PGE1 (500 nM)
Experimental: Urol., 155:[…], 1996). This decrease is indistinguishable from the decrease seen in the absence of extracellular Ca^2+ (in 2 mM EGTA), or when cells are preincubated with either nifedipine (Zhao and Christ, J. Urol., 154:1571-79, 1995) or verapamil, both of which are blockers of the L-type voltage-dependent calcium channel. [table]

maxi-K channel [5] = target: T1, maxi-K channel; conditions: all four recording modes; cited from earlier work
[6] = test system: cultured human corporal smooth muscle cells; conditions: preincubation with 500 nM PGE1, cited from earlier work
monkeys and humans = conditions: cited from earlier work
[7] = test system: precontracted corporal tissue strips; conditions: from both animals and humans; cited from earlier work

Chain of KCa channel (Q12791 whole entry): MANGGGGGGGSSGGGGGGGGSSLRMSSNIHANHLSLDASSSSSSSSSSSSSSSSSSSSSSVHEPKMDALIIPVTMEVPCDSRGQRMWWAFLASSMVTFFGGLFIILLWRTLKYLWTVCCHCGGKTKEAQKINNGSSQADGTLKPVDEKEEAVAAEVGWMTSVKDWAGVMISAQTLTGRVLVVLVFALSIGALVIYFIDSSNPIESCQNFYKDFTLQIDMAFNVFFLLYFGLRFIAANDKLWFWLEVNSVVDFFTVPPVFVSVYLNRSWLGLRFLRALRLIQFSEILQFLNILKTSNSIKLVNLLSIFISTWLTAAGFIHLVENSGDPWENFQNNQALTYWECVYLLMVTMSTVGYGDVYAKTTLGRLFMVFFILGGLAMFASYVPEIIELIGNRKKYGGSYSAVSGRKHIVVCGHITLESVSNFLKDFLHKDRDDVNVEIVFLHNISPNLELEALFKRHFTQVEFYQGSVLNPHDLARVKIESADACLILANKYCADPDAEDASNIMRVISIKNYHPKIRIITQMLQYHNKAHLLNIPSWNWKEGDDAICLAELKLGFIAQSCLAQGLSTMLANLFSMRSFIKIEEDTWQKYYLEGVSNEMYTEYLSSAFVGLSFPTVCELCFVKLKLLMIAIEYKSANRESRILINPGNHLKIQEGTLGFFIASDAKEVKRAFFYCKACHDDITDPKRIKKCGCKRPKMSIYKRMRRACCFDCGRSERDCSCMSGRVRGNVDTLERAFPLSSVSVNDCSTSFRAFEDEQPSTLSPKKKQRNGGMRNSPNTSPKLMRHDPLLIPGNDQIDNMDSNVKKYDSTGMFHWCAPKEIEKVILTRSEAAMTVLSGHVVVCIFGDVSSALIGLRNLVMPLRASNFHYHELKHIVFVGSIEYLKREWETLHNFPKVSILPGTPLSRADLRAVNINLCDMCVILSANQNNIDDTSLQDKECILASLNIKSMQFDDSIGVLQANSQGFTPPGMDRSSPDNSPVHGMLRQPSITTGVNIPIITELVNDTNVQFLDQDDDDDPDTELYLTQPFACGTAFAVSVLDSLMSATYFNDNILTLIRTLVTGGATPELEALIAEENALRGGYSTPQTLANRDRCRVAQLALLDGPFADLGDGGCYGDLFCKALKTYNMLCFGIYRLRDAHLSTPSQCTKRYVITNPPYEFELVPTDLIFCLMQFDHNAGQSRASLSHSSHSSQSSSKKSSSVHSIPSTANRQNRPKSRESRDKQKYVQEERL
T1 sequence (Q12791 whole entry): as above

Compound: COc1ccc(Cl)cc1C(=O)NCCc1ccc(S(=O)(=O)NC(=O)NC2CCCCC2)cc1 [Glibenclamide, glibenclamide]
Effect on Smooth Muscle Tone (corporal smooth muscle; Table 4): increased tone | Channel Type Affected: KATP (KATP channel): KATP decreases

Compound: [Cl-].[K+] [KCl]
Effect on Smooth Muscle Tone (corporal smooth muscle; Table 4): modulates increase | Channel Type Affected: KATP (KATP channel): KATP increases

Compound: O=[N+]([O-])OCC(CO[N+](=O)[O-])O[N+](=O)[O-] [NTG, nitroglycerine]
expected percent relaxation response elicited by 100 nM nitroglycerine [1]: 50.1% | Effect on Smooth Muscle Tone (corporal smooth muscle): decreased tone | percent relaxation response elicited by 100 nM nitroglycerine [2]: 20.3%±3.2 | Channel Type Affected: L-type Ca^2+ (L-type Ca^2+ channel): decreases | Channel activity increased (maxi-K channel [3]): YES | maxi-K channel activity (attached patch recording mode) (maxi-K channel [3]): increase in maxi-K channel activity

Compound: CNC[C@H](O)c1cccc(O)c1 [PE, phenylephrine]
Effect on Smooth Muscle Tone (corporal smooth muscle; Table 4): modulates increase | Channel Type Affected: KCa (KCa channel): KCa increases

Channel activity increased (maxi-K channel [3]; 100 μM NTG or 30 nM–30 μM PGE1): YES
Compound: CCCCC[C@H](O)/C=C/[C@H]1[C@H](O)CC(=O)[C@@H]1CCCCCCC(=O)O [PGE1, prostaglandin E1]
ET-1-induced calcium response decreased [4]: YES | activity of the maxi-K channel (maxi-K channel [5]): concentration-dependent increase | decrease in peak amplitude of the ET-1-induced (50 nM) calcium transient [6]: ≈ 40% | peak amplitude of the ET-1-induced (50 nM) calcium transient above baseline ([6]; control value 161.5±19.5 nM): 102.6 ± 9.5 nM | Effect on Smooth Muscle Tone (corporal smooth muscle; Table 4): decreased tone | Channel Type Affected: KCa (KCa channel): KCa increases

Compound: CC[N+](CC)(CC)CC [TEA, tetraethylammonium]
Effect on Smooth Muscle Tone (corporal smooth muscle): increased tone | PE-induced contraction increased [2]: YES | Relaxation response decreased [2]: YES | Resting corporal smooth muscle tone increased [2]: YES | effect on NTG-induced relaxation response (100 nM) [2]: significant attenuation | Channel Type Affected: KCa (KCa channel): KCa decreases

Compound: CC1(C)Oc2ccc(C#N)cc2C(N2CCCC2=O)C1O (stereo not shown) [cromakalim]
effect when injected intracavernosally (monkeys and humans): elicit an erection | effect on precontracted corporal tissue strips [7]: relax

Compound: CC1(C)Oc2ccc(C#N)cc2[C@@H](N2CCCC2=O)[C@@H]1O [lemakalim]
effect when injected intracavernosally (monkeys and humans): elicit an erection | effect on precontracted corporal tissue strips [7]: relax

Compound: O=C(NCCO[N+](=O)[O-])c1cccnc1 [nicorandil]
effect when injected intracavernosally (monkeys and humans): elicit an erection | effect on precontracted corporal tissue strips [7]: relax

Compound: CC(N/C(=N\C#N)Nc1ccncc1)C(C)(C)C (stereo not shown) [pinacidil]
effect when injected intracavernosally (monkeys and humans): elicit an erection | Effect on Smooth Muscle Tone (corporal smooth muscle; Table 4): decreased tone | Channel Type Affected: KATP (KATP channel): KATP increases | effect on precontracted corporal tissue strips [7]: relax

Compound: endothelin-1 (CSCSSLMDKECVYFCHLDIIW; ends and bridges not checked; cysteine pairing not given here; UniProt P05305 53-73, looked up) [ET-1]
Effect on Smooth Muscle Tone (corporal smooth muscle; Table 4): increased tone | Channel Type Affected: L-type Ca^2+ (L-type Ca^2+ channel; Table 4): increases
